Format in all cases: functional
The test system of one experiment is Enterococcus faecium. As to the kind of experiment: Antibacterial activity against vancomycin-resistant Enterococcus faecium ATCC 700221 by NCCLS method.
Experiment [1] relates to Staphylococcus aureus. As to the kind of experiment: Antibacterial activity against multi-drug resistant Staphylococcus aureus BAA-39 by NCCLS method.
Experiment [2] relates to Staphylococcus epidermidis. As to the kind of experiment: Antibacterial activity against methicillin-resistan Staphylococcus epidermidis ATCC 51625 by NCCLS method.
A further experiment relates to Enterococcus faecalis. In words: Antibacterial activity against vancomycin-resistant Enterococcus faecalis ATCC 51575 by NCCLS method.
The next experiment deals with Bacillus cereus. As to the kind of experiment: Antibacterial activity against Bacillus cereus ATCC 11778 by NCCLS method.
Another experiment deals with Bacillus subtilis. As to the kind of experiment: Antibacterial activity against Bacillus subtilis ATCC 23857 by NCCLS method.
Another experiment has as its system Clostridium perfringens. As to the kind of experiment: Antibacterial activity against Clostridium perfringens ATCC 10388 by NCCLS method.
Experiment [3] concerns Staphylococcus epidermidis. As to the kind of experiment: Antibacterial activity against Staphylococcus epidermidis ATCC 12228 by NCCLS method.
The next experiment relates to Streptococcus pneumoniae. In words: Antibacterial activity against Streptococcus pneumoniae ATCC 6301 by NCCLS method.
In experiment [4] the test system is Staphylococcus aureus. In words: Antibacterial activity against methicillin-resistan Staphylococcus aureus ATCC 33591 by NCCLS method.
In experiment [5] the test system is Staphylococcus aureus. In words: Antibacterial activity against Staphylococcus aureus ATCC 29213 by NCCLS method.
Another experiment deals with Bacteroides fragilis. In words: Antibacterial activity against Bacteroides fragilis ATCC 23745 by NCCLS method.

Values after ≈ are worked out from the molar mass of the structure shown. Bounds are passed on as bounds.

For orientation: MIC means the lowest concentration found to suppress growth. Turning to `CC(C)NC(=N)c1ccc2[nH]c(-c3ccc(-c4ccc(-c5ccc(-c6nc7cc(C(=N)NC(C)C)ccc7[nH]6)cc5)o4)cc3)nc2c1`, the MIC was 2 µg/mL (≈ 3.22 µM) with Enterococcus faecium; 32 µg/mL (≈ 51.5 µM) against Staphylococcus aureus [1]; 2 µg/mL (≈ 3.22 µM) in experiment [2]; above 32 µg/mL in the experiment with Enterococcus faecalis; 2 µg/mL (≈ 3.22 µM) with Bacillus cereus; 2 µg/mL (≈ 3.22 µM) in the experiment with Bacillus subtilis. The MIC against Clostridium perfringens was 1 µg/mL (≈ 1.61 µM); in experiment [3], 4 µg/mL (≈ 6.44 µM); against Streptococcus pneumoniae it was 0.12 µg/mL (≈ 0.193 µM); against Staphylococcus aureus [4] it was 2 µg/mL (≈ 3.22 µM); against Staphylococcus aureus [5] it was above 32 µg/mL; against Bacteroides fragilis, above 32 µg/mL.
`CC(C)NC(=N)c1ccc2[nH]c(-c3ccc(C#Cc4ccc(-c5nc6cc(C(=N)NC(C)C)ccc6[nH]5)cc4)cc3)nc2c1`: the MIC came to 0.5 µg/mL (≈ 0.864 µM) in the experiment on Enterococcus faecium; 4 µg/mL (≈ 6.91 µM) against Staphylococcus aureus [1]; 0.25 µg/mL (≈ 0.432 µM) in experiment [2]; 32 µg/mL (≈ 55.3 µM) in the experiment on Enterococcus faecalis; 0.5 µg/mL (≈ 0.864 µM) against Bacillus cereus; 4 µg/mL (≈ 6.91 µM) against Bacillus subtilis. In addition, the MIC was 4 µg/mL (≈ 6.91 µM) against Clostridium perfringens; 0.12 µg/mL (≈ 0.207 µM) in experiment [3]; 2 µg/mL (≈ 3.46 µM) in the experiment on Staphylococcus aureus [4]; 2 µg/mL (≈ 3.46 µM) against Staphylococcus aureus [5]; above 32 µg/mL with Bacteroides fragilis.
In the case of `CC(C)NC(=N)c1ccc2[nH]c(-c3ccc(N(c4ccccc4)c4ccc(-c5nc6cc(C(=N)NC(C)C)ccc6[nH]5)cc4)cc3)nc2c1`, the MIC is 0.12 µg/mL (≈ 0.186 µM) in the experiment with Enterococcus faecium; 0.5 µg/mL (≈ 0.774 µM) with Staphylococcus aureus [1]; 0.25 µg/mL (≈ 0.387 µM) in [2]; 0.5 µg/mL (≈ 0.774 µM) in the experiment on Enterococcus faecalis; 0.12 µg/mL (≈ 0.186 µM) in the experiment on Bacillus cereus; at most 0.06 µg/mL with Bacillus subtilis. Also, the MIC with Clostridium perfringens came to 1 µg/mL (≈ 1.55 µM); in experiment [3] it was 0.25 µg/mL (≈ 0.387 µM); with Streptococcus pneumoniae, 0.12 µg/mL (≈ 0.186 µM); against Staphylococcus aureus [4], 0.5 µg/mL (≈ 0.774 µM); against Staphylococcus aureus [5], 1 µg/mL (≈ 1.55 µM); with Bacteroides fragilis it was 4 µg/mL (≈ 6.19 µM).
As to `CC(C)NC(=N)c1ccc2[nH]c(-c3ccc(N(C)c4ccc(-c5nc6cc(C(=N)NC(C)C)ccc6[nH]5)cc4)cc3)nc2c1`, the MIC against Enterococcus faecium was at most 0.06 µg/mL; with Staphylococcus aureus [1], 0.5 µg/mL (≈ 0.857 µM); in [2] it was 0.12 µg/mL (≈ 0.206 µM); in the experiment on Enterococcus faecalis, 0.25 µg/mL (≈ 0.428 µM); against Bacillus cereus it was 0.25 µg/mL (≈ 0.428 µM); with Bacillus subtilis it was 0.12 µg/mL (≈ 0.206 µM). Moreover, the MIC in the experiment on Clostridium perfringens was 1 µg/mL (≈ 1.71 µM); in experiment [3] it was 0.12 µg/mL (≈ 0.206 µM); in the experiment with Streptococcus pneumoniae it was 0.12 µg/mL (≈ 0.206 µM); in the experiment on Staphylococcus aureus [4], 0.5 µg/mL (≈ 0.857 µM); against Staphylococcus aureus [5], 1 µg/mL (≈ 1.71 µM); against Bacteroides fragilis, above 32 µg/mL.
On to `CC(C)NC(=N)c1ccc2[nH]c(-c3ccc(Sc4ccc(-c5nc6cc(C(=N)NC(C)C)ccc6[nH]5)cc4)cc3)nc2c1`, for which the minimum inhibitory concentration (MIC) in the experiment with Enterococcus faecium is 16 µg/mL (≈ 27.3 µM); in the experiment with Staphylococcus aureus [1], 32 µg/mL (≈ 54.5 µM); in experiment [2], 16 µg/mL (≈ 27.3 µM); against Enterococcus faecalis, above 32 µg/mL; in the experiment with Bacillus cereus, 8 µg/mL (≈ 13.6 µM); against Bacillus subtilis, 16 µg/mL (≈ 27.3 µM). Also, the MIC in the experiment on Clostridium perfringens is above 32 µg/mL; in [3] it was 8 µg/mL (≈ 13.6 µM); against Streptococcus pneumoniae it was above 32 µg/mL; with Staphylococcus aureus [4], 16 µg/mL (≈ 27.3 µM); with Staphylococcus aureus [5] it was above 32 µg/mL; against Bacteroides fragilis, above 32 µg/mL.
Regarding `CC(C)NC(=N)c1ccc2[nH]c(-c3ccc4c(c3)Cc3ccc(-c5nc6cc(C(=N)NC(C)C)ccc6[nH]5)cc3S4)nc2c1`, the MIC against Enterococcus faecium is 0.5 µg/mL (≈ 0.835 µM); with Staphylococcus aureus [1], 8 µg/mL (≈ 13.4 µM); in experiment [2], 0.5 µg/mL (≈ 0.835 µM); in the experiment with Enterococcus faecalis, 16 µg/mL (≈ 26.7 µM); against Bacillus cereus it was 1 µg/mL (≈ 1.67 µM); against Bacillus subtilis it was 1 µg/mL (≈ 1.67 µM). The MIC against Clostridium perfringens was 0.5 µg/mL (≈ 0.835 µM); in experiment [3], 2 µg/mL (≈ 3.34 µM); in the experiment on Streptococcus pneumoniae, 0.12 µg/mL (≈ 0.2 µM); against Staphylococcus aureus [4], 2 µg/mL (≈ 3.34 µM); against Staphylococcus aureus [5], 16 µg/mL (≈ 26.7 µM); against Bacteroides fragilis it was above 32 µg/mL.
Consider `CC(C)NC(=N)c1ccc2[nH]c(-c3ccc(Cc4ccc(-c5nc6cc(C(=N)NC(C)C)ccc6[nH]5)cc4)cc3)nc2c1`, for which the MIC against Enterococcus faecium amounted to 0.12 µg/mL (≈ 0.211 µM); against Staphylococcus aureus [1] it was 1 µg/mL (≈ 1.76 µM); in experiment [2], 0.25 µg/mL (≈ 0.44 µM); against Enterococcus faecalis, 0.25 µg/mL (≈ 0.44 µM); in the experiment on Bacillus cereus it was 0.25 µg/mL (≈ 0.44 µM); in the experiment on Bacillus subtilis, 0.25 µg/mL (≈ 0.44 µM). Further, the MIC against Clostridium perfringens was 1 µg/mL (≈ 1.76 µM); in experiment [3], 0.12 µg/mL (≈ 0.211 µM); with Streptococcus pneumoniae, below 0.06 µg/mL; in the experiment with Staphylococcus aureus [4], 0.25 µg/mL (≈ 0.44 µM); with Staphylococcus aureus [5], 1 µg/mL (≈ 1.76 µM); against Bacteroides fragilis it was 1 µg/mL (≈ 1.76 µM).
With `CC(C)NC(=N)c1ccc2[nH]c(-c3ccc(CCc4ccc(-c5nc6cc(C(=N)NC(C)C)ccc6[nH]5)cc4)cc3)nc2c1`, the MIC amounted to 0.12 µg/mL (≈ 0.206 µM) against Enterococcus faecium; 0.5 µg/mL (≈ 0.858 µM) in the experiment with Staphylococcus aureus [1]; 0.12 µg/mL (≈ 0.206 µM) in [2]; 0.25 µg/mL (≈ 0.429 µM) against Enterococcus faecalis; 0.12 µg/mL (≈ 0.206 µM) against Bacillus cereus; 0.12 µg/mL (≈ 0.206 µM) against Bacillus subtilis. Moreover, the minimal inhibitory concentration (MIC) was 0.25 µg/mL (≈ 0.429 µM) against Clostridium perfringens; below 0.06 µg/mL in experiment [3]; below 0.06 µg/mL against Streptococcus pneumoniae; 0.25 µg/mL (≈ 0.429 µM) with Staphylococcus aureus [4]; 0.25 µg/mL (≈ 0.429 µM) with Staphylococcus aureus [5]; 0.5 µg/mL (≈ 0.858 µM) against Bacteroides fragilis.
Take `CC(C)NC(=N)c1ccc2[nH]c(-c3ccc(NS(=O)(=O)c4ccc(-c5nc6cc(C(=N)NC(C)C)ccc6[nH]5)cc4)cc3)nc2c1`: the MIC worked out at 4 µg/mL (≈ 6.31 µM) against Enterococcus faecium; 16 µg/mL (≈ 25.2 µM) against Staphylococcus aureus [1]; 4 µg/mL (≈ 6.31 µM) in experiment [2]; 2 µg/mL (≈ 3.16 µM) with Enterococcus faecalis; 2 µg/mL (≈ 3.16 µM) in the experiment on Bacillus cereus; 2 µg/mL (≈ 3.16 µM) against Bacillus subtilis. For the same compound, the MIC with Clostridium perfringens was 4 µg/mL (≈ 6.31 µM); in experiment [3], 2 µg/mL (≈ 3.16 µM); against Streptococcus pneumoniae, 1 µg/mL (≈ 1.58 µM); against Staphylococcus aureus [4], 16 µg/mL (≈ 25.2 µM); against Staphylococcus aureus [5], above 32 µg/mL; with Bacteroides fragilis, 2 µg/mL (≈ 3.16 µM).
Regarding `CC(C)NC(=N)c1ccc2[nH]c(-c3ccc(COc4ccc(-c5nc6cc(C(=N)NC(C)C)ccc6[nH]5)cc4)cc3)nc2c1`, the MIC in the experiment on Enterococcus faecium came out at 0.12 µg/mL (≈ 0.205 µM); in the experiment on Staphylococcus aureus [1] it was 4 µg/mL (≈ 6.84 µM); in [2], 0.25 µg/mL (≈ 0.428 µM); with Enterococcus faecalis, 1 µg/mL (≈ 1.71 µM); in the experiment with Bacillus cereus it was 0.12 µg/mL (≈ 0.205 µM); against Bacillus subtilis, 0.12 µg/mL (≈ 0.205 µM). Moreover, the MIC against Clostridium perfringens was 16 µg/mL (≈ 27.4 µM); in experiment [3], at most 0.06 µg/mL; in the experiment with Streptococcus pneumoniae, at most 0.06 µg/mL; with Staphylococcus aureus [4] it was 0.5 µg/mL (≈ 0.855 µM); in the experiment on Staphylococcus aureus [5] it was 1 µg/mL (≈ 1.71 µM); in the experiment on Bacteroides fragilis it was 32 µg/mL (≈ 54.7 µM).
Take `O=C(O)c1cn(C2CC2)c2cc(N3CCNCC3)c(F)cc2c1=O` [CIPROFLOXACIN]: the minimal inhibitory concentration (MIC) against Enterococcus faecium is above 32 µg/mL; in the experiment on Staphylococcus aureus [1] it was 8 µg/mL (≈ 24.1 µM); in experiment [2] it was at most 0.12 µg/mL; against Enterococcus faecalis, 0.5 µg/mL (≈ 1.51 µM); against Bacillus cereus, at most 0.12 µg/mL; in the experiment with Bacillus subtilis it was at most 0.12 µg/mL. Further, the MIC in experiment [3] was at most 0.12 µg/mL; in the experiment with Staphylococcus aureus [4], at most 0.12 µg/mL; with Staphylococcus aureus [5] it was 0.5 µg/mL (≈ 1.51 µM); against Bacteroides fragilis, 0.5 µg/mL (≈ 1.51 µM).
Turning to `CN[C@H](CC(C)C)C(=O)N[C@H]1C(=O)N[C@@H](CC(N)=O)C(=O)N[C@H]2C(=O)N[C@H]3C(=O)N[C@H](C(=O)N[C@H](C(=O)O)c4cc(O)cc(O)c4-c4cc3ccc4O)[C@H](O)c3ccc(c(Cl)c3)Oc3cc2cc(c3O[C@@H]2O[C@H](CO)[C@@H](O)[C@H](O)[C@H]2O[C@H]2C[C@](C)(N)[C@H](O)[C@H](C)O2)Oc2ccc(cc2Cl)[C@H]1O` [VANCOMYCIN], the minimal inhibitory concentration (MIC) in the experiment with Enterococcus faecium is above 64 µg/mL; against Enterococcus faecalis, above 32 µg/mL; in the experiment with Bacillus subtilis it was 0.12 µg/mL (≈ 0.0828 µM); with Clostridium perfringens it was 0.12 µg/mL (≈ 0.0828 µM); against Streptococcus pneumoniae, 1 µg/mL (≈ 0.69 µM); in the experiment on Bacteroides fragilis, 4 µg/mL (≈ 2.76 µM).

(Values after ChEMBL document CHEMBL1137006, “Optimization of the central linker of dicationic bis-benzimidazole anti-MRSA and anti-VRE agents” (2009).)
